According to PubChem BioAssay AID1963965 (Molecular Pharmacology Branch, DTP, NCI, 2024):
Blank lines part the entries; values can stand above or below the compound they belong to.

System: 996289-038-R-J1-PDC spheroid viability
Assay: Anticancer human tumor 996289-038-R-J1-PDC patient-derived colon adenocarcinoma cell line growth inhibition [PI3K]
Conditions: spheroids with HUVEC and MSC; for IC50: curve of first compound; for viability, T/C: stronger effect = lower value
In short: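 Targeted small molecules plus PI3K inhibitors, half-log dose series from Cmax (default top 10 microM), were applied to heterotypic spheroids of cancer cells with HUVEC and MSCs. Viability indicated growth inhibition.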

[1] = second compound 0.00316 µM, first compound 0.0316 µM
[2] = second compound 0.00316 µM, first compound 0.1 µM
[3] = second compound 0.00316 µM, first compound 0.316 µM
[4] = second compound 0.00316 µM, first compound 1 µM
[5] = second compound 0.01 µM, first compound 0.0316 µM
[6] = second compound 0.01 µM, first compound 0.1 µM
[7] = second compound 0.01 µM, first compound 0.316 µM
[8] = second compound 0.01 µM, first compound 1 µM
[9] = second compound 0.0316 µM, first compound 0.0316 µM
[10] = second compound 0.0316 µM, first compound 0.1 µM
[11] = second compound 0.0316 µM, first compound 0.316 µM
[12] = second compound 0.0316 µM, first compound 1 µM
[13] = second compound 0.1 µM, first compound 0.0316 µM
[14] = second compound 0.1 µM, first compound 0.1 µM
[15] = second compound 0.1 µM, first compound 0.316 µM
[16] = second compound 0.1 µM, first compound 1 µM
[17] = second compound 0.316 µM, first compound 0.0316 µM
[18] = second compound 0.316 µM, first compound 0.1 µM
[19] = second compound 0.316 µM, first compound 0.316 µM
[20] = second compound 0.316 µM, first compound 1 µM
[21] = second compound 1 µM, first compound 0.0316 µM
[22] = second compound 1 µM, first compound 0.1 µM
[23] = second compound 1 µM, first compound 0.316 µM
[24] = second compound 1 µM, first compound 1 µM
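Note: spheroids exposed to compounds for seven days before viability read.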
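Throughout, for viability, T/C: luminescence used as a proxy for viable cell amount; percent viability relative to DMSO vehicle control as 100%.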

IC50 (second compound 0.00316 µM): > 10000 nM
IC50 (second compound 0.01 µM): > 10000 nM
IC50 (second compound 0.0316 µM): > 10000 nM
IC50 (second compound 0.1 µM): 4890 nM
IC50 (second compound 0.316 µM): < 31.6 nM
IC50 (second compound 1 µM): < 31.6 nM
SMILES: CC(C)NCC(C(=O)N1CCN(c2ncnc3c2C(C)CC3O)CC1)c1ccc(Cl)cc1 (centres undefined) + COc1c(OCCCN2CCOCC2)ccc2c3n(c(=NC(=O)c4cnc(N)nc4)nc12)CCN3
viability, T/C [1]: 98.9%
viability, T/C [2]: 82.3%
viability, T/C [3]: 103%
viability, T/C [4]: 103%
viability, T/C (second compound 0.00316 µM, first compound 3.16 µM): 103%
viability, T/C (second compound 0.00316 µM, first compound 10 µM): 62.2%
viability, T/C [5]: 87.6%
viability, T/C [6]: 84.9%
viability, T/C [7]: 101%
viability, T/C [8]: 102%
viability, T/C (second compound 0.01 µM, first compound 3.16 µM): 106%
viability, T/C (second compound 0.01 µM, first compound 10 µM): 65.3%
viability, T/C [9]: 86.3%
viability, T/C [10]: 77.1%
viability, T/C [11]: 78%
viability, T/C [12]: 89%
viability, T/C (second compound 0.0316 µM, first compound 3.16 µM): 76.1%
viability, T/C (second compound 0.0316 µM, first compound 10 µM): 51.1%
viability, T/C [13]: 59.7%
viability, T/C [14]: 55.8%
viability, T/C [15]: 57%
viability, T/C [16]: 66.9%
viability, T/C (second compound 0.1 µM, first compound 3.16 µM): 57.3%
viability, T/C (second compound 0.1 µM, first compound 10 µM): 36.7%
viability, T/C [17]: 32.9%
viability, T/C [18]: 33.7%
viability, T/C [19]: 38.1%
viability, T/C [20]: 32.5%
viability, T/C (second compound 0.316 µM, first compound 3.16 µM): 38.6%
viability, T/C (second compound 0.316 µM, first compound 10 µM): 27.1%
viability, T/C [21]: 24%
viability, T/C [22]: 18.5%
viability, T/C [23]: 18%
viability, T/C [24]: 23%
viability, T/C (second compound 1 µM, first compound 3.16 µM): 20.1%
viability, T/C (second compound 1 µM, first compound 10 µM): 15.3%

IC50 (second compound 0.00316 µM): > 1000 nM
IC50 (second compound 0.01 µM): > 1000 nM
IC50 (second compound 0.0316 µM): > 1000 nM
IC50 (second compound 0.1 µM): 41.2 nM
IC50 (second compound 0.316 µM): < 3.16 nM
IC50 (second compound 1 µM): < 3.16 nM
SMILES: CCN1CCN(Cc2ccc(Nc3ncc(F)c(-c4cc(F)c5nc(C)n(C(C)C)c5c4)n3)nc2)CC1 + COc1c(OCCCN2CCOCC2)ccc2c3n(c(=NC(=O)c4cnc(N)nc4)nc12)CCN3
viability, T/C (second compound 0.00316 µM, first compound 0.00316 µM): 107%
viability, T/C (second compound 0.00316 µM, first compound 0.01 µM): 90.6%
viability, T/C [1]: 92.6%
viability, T/C [2]: 97.2%
viability, T/C [3]: 82.9%
viability, T/C [4]: 75.8%
viability, T/C (second compound 0.01 µM, first compound 0.00316 µM): 105%
viability, T/C (second compound 0.01 µM, first compound 0.01 µM): 80.7%
viability, T/C [5]: 82.5%
viability, T/C [6]: 82.7%
viability, T/C [7]: 79.2%
viability, T/C [8]: 67.6%
viability, T/C (second compound 0.0316 µM, first compound 0.00316 µM): 75.2%
viability, T/C (second compound 0.0316 µM, first compound 0.01 µM): 72.5%
viability, T/C [9]: 76%
viability, T/C [10]: 57.3%
viability, T/C [11]: 59.6%
viability, T/C [12]: 53.3%
viability, T/C (second compound 0.1 µM, first compound 0.00316 µM): 57.4%
viability, T/C (second compound 0.1 µM, first compound 0.01 µM): 52.1%
viability, T/C [13]: 50.2%
viability, T/C [14]: 47.3%
viability, T/C [15]: 43.7%
viability, T/C [16]: 35.2%
viability, T/C (second compound 0.316 µM, first compound 0.00316 µM): 46.5%
viability, T/C (second compound 0.316 µM, first compound 0.01 µM): 33.5%
viability, T/C [17]: 29.2%
viability, T/C [18]: 27.2%
viability, T/C [19]: 22.7%
viability, T/C [20]: 24.1%
viability, T/C (second compound 1 µM, first compound 0.00316 µM): 21.2%
viability, T/C (second compound 1 µM, first compound 0.01 µM): 15.1%
viability, T/C [21]: 18.4%
viability, T/C [22]: 15.5%
viability, T/C [23]: 17.6%
viability, T/C [24]: 19%
